Experimental data published in US7132547B2, “Preventives/remedies for urinary disturbance” (priority 2001, dated 2006).
Where a name gives a salt, the structure may show the parent alone.

Experiments:
[1] = target: T1, human adrenaline α1A receptor (Homo sapiens, UniProt P35348); assay: Measurement of α1A receptor binding inhibitory activity ([3H]-Prazosin binding to CHO-K1 membrane fraction); details: concentration reducing [3H]-Prazosin (2.5 nM) binding to the membrane fraction to 50%
T1 construct: expressed in transfected cells; membrane fraction
T1 sequence (P35348 1-466): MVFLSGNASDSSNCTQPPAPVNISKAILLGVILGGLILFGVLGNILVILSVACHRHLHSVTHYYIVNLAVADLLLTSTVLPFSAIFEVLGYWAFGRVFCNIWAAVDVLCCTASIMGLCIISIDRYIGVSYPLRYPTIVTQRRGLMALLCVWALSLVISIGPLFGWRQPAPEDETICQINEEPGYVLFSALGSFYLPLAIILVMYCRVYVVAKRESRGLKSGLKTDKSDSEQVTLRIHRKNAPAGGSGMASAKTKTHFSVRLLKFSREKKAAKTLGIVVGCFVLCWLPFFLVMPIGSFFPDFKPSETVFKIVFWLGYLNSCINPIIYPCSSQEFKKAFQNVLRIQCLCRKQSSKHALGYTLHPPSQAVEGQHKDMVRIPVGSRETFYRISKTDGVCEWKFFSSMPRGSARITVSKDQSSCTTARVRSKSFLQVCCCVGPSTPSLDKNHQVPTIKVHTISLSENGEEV
Description: b) Measurement of α1A Receptor Binding Inhibitory Activity
The following gene manipulation method was carried out according to the method described in a textbook (Miniatis et al., Molecular Cloning, Cold Spring Harbor Laboratory, 1989) or the method described in protocol attached to a reagent.
(i) Preparation of Expression Plasmid for Human Adrenaline α1A Receptor
An adrenaline α1A receptor gene was cloned from a human liver cDNA by a PCR method. A PCR reaction was performed with Gene Amp PCR System 9700 (Applied Biosystems) using 200 ng of a human liver cDNA library (TAKARA SHUZO Co., Ltd.) as a template and using TaKaRa Pyrobest DNA Polymerase (TAKARA SHUZO CO., Ltd) and adding each 50 pmol of a primer set 5′-[…]-3′ [SEQ ID No.: 1] and 5′-[…]-3[SEQ ID No.: 2] prepared making reference to a nucleotide sequence of an adrenaline α1A receptor gene which was reported by Hirasawa A. et al. (Biochem. Biophys. Res. Commun., 195, 902–909(1993)) (reaction condition: 45 cycles of 15 seconds at 94° C., and 3 minutes 30 seconds at 68° C.).
The obtained PCR fragment was digested with restriction enzymes Eco RI (TAKARA SHUZO Co. Ltd.) and Sal I. (TAKARA SHUZO Co. Ltd.), and agarose gel electrophoresis was performed to recover DNA fragments. The DNA fragments were mixed with an animal cell expression plasmid pMSR αneo (Administration No. A99–0013) which had been digested with Eco RI and Sal I, ligated with DNA Ligation Kit Ver. 2 (TAKARA SHUZO Co. Ltd.), and a competent cell of Esherichia coli JM109 was transformed to obtain a plasmid pMSR αneoA dreα1A.
(ii) Introduction of Plasmid for Expression of Human Adrenaline α1A Receptor into CHO-K1 Cell and Preparation of Membrane Fraction
CHO-K1 cells which had been subcultured in a 150 cm^2 culturing flask (Corning Coaster) using Ham F12 medium (Invitrogen) containing 10% fetal bovine serum (TRACE SCIENTIFIC) was peeled with 0.5 g/L trypsin-0.2 g/L EDTA(Invitrogen), cells were washed with D-PBS(−) (Invitrogen), centrifuged (1000 rpm, 5 min.), and suspended in D-PBS(−). […]

[2] = target: T2, human erythrocyte-derived acetylcholinesterase (Homo sapiens, UniProt P22303); assay: Measurement of acetylcholinesterase inhibitory activity (acetylthiocholine / Ellman method); assay type: biochemical; details: 50% inhibition concentration, repeated at least three times, read-out: AchE: IC50
T2 construct: Human erythrocyte-drived acetylcholinesterase (Sigma) was dissolved in distilled water; purchased Sigma; host or cells: human erythrocytes (natural source)
T2 sequence (P22303 32-617 isoform P22303-2 limits assumed): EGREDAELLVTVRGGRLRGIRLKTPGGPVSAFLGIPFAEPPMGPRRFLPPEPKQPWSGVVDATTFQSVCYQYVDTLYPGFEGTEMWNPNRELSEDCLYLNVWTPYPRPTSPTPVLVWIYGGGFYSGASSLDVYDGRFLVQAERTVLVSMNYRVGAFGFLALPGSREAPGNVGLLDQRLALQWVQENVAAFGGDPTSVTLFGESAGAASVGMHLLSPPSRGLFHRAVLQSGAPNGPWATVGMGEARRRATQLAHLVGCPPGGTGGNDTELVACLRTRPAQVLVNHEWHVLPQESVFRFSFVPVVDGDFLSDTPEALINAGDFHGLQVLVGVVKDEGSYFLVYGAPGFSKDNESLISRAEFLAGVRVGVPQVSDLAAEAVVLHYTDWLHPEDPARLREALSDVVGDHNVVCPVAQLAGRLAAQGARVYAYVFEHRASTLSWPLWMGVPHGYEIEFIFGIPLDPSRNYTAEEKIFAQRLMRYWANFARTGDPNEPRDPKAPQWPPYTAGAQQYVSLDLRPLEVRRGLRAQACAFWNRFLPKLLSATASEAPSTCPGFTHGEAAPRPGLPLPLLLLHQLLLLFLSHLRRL
Description: a) Measurement of Acetylcholinesterase Inhibitory Activity
Acetylcholinesterase inhibitory activity of Example compounds was measured using human erythrocyte-derived acetylcholinesterase by an acetylthiocholine method (Ellman method).
Human erythrocyte-drived acetylcholinesterase (Sigma) was dissolved in distilled water to the concentration of 0.2 IU/mL to obtain an enzyme specimen. 20 μL of a drug solution, 30 μL of 80 mM Tris-HCL (pH 7.4), 50 μL of an enzyme specimen and 50 μL of 5 mM 5,5-dithio-bis (2-nitrobenzoic acid)(Sigma) were dispensed on a 96-well microplate, and this was shaken for 10 seconds. 50 μL of 4 mM acetylthiocholine iodide (Sigma) was added, this was shaken again and, immediately after, increase in absorbance at 414 nm was measured at 30 second intervals for 10 minutes. Enzyme activity was measured by the following equation: R=5.74×10^−7×ΔA (wherein R represents enzyme activity (mol), and ΔA represents increase in absorbance at 414 nm)
Regarding each compound, the experiment was repeated at least three times to obtain 50% inhibition concentration (IC50). According to the similar method to the above-mentioned, acetylcholinesterase inhibitory activity of distigmine which is a known acetylcholinesterase inhibitor was measured.

SMILES | IC50 [1] | IC50 [2]
O=C(CCC1CCN(CCc2cccc(F)c2)CC1)c1cc2c3c(c1)CCN3C(=O)CC2 [Example 84, 8-(3-[1-[2-(3-Fluorophenyl)ethyl]-4-piperidinyl]propanoyl)-1,2,5,6-tetrahydro-4H-pyrrolo[3,2,1-ij]quinolin-4-one hydrochloride] | 236 nM | 169 nM
CN(CCCCCCN(C)C(=O)Oc1ccc[n+](C)c1)C(=O)Oc1ccc[n+](C)c1 [Distigmine, distigmine, reference compound] |  | 723 nM
COc1ccccc1N1CCN(CCCNc2cc(=O)n(C)c(=O)n2C)CC1 [urapidil, reference compound] | 357 nM | 
